Reference: US7659312B2, “Inhibitors of Aquaporin 4, methods and uses thereof” (Niigata University, priority 2006, dated 2010)
Read-outs that look alike come from different tables or passages of the source.

Legend:
HEK293 cells = settings: literature report, isozyme not demonstrated; cited from earlier work
[1] = molecular target: T1, human aquaporin-4 M23 isoform (hAQP4b) (Homo sapiens, UniProt P55087); test: Inhibition of AQP4 mediated hypoosmotic swelling of Xenopus laevis oocytes expressing hAQP4b; format: cell-based; settings: for inhibition at 20 µM / % Inh (percent inhibition and cumulated error): Table 3, [X]=20 μM, P<0.05; for inhibition at 20 µM: read-out: % Inh (percent inhibition and cumulated error)
T1 construct: Full-length cRNA was subcloned into pSP35T expression vector for Xenopus oocytes; expressed in transfected cells; host or cells: Xenopus laevis oocytes injected with hAQP4b cRNA (pSP35T vector)
T1 sequence (P55087 23-323): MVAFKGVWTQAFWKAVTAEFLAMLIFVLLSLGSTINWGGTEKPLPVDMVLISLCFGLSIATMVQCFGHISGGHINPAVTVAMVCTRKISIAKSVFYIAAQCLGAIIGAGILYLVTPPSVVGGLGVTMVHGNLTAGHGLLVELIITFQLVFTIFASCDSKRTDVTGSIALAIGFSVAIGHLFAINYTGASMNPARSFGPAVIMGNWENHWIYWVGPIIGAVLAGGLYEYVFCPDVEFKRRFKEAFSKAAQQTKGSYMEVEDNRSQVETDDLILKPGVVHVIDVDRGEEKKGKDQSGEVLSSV
Procedure: Compounds studied in vitro were purchased from Sigma-Aldrich, Tokyo Kasei, Wako or Scientific Exchange, and were used without further purification. […] Compound samples were freshly dissolved into DMSO (Sigma, Hibri-Max) and diluted into RO deionized water (Milipore, Ultra-Q) prior to use. Other reagents were purchased from Sigma and Wako and were used without modification. Modified Barth's Medium (MBS) and isolation buffer were prepared using autoclaved, doubly distilled water. MBS was used for up to one week after its preparation. […] Isolation buffer was prepared to contain NaCl (108 mM), KCl (2 mM), EDTA, (2 mM), HEPES (10 mM), and was at pH=7.5.
cDNA encoding human aquaporin-4 M23 isoform (hAQP4b) was cloned by reverse-transcription polymerase chain reaction (RT-PCR). First-strand cDNA was synthesized from human cerebellum total RNA by using the Advantage RT-for-PCR Kit (CLONTECH). The following oligonucleotide PCR primers were designed based on published hAQP4b sequences (Lu, et al. Proc. Nat. Acad. Sci. USA 1996, 93, 10908): forward 5′-[…]-3′, reverse 5′-[…]-3′. Full-length cRNA was subcloned into pSP35T expression vector for Xenopus oocytes (Amaya, et al. Cell 1991, 66, 257).
Oocytes from an adult, female Xenopus laevis were transferred portion-wise to a Petri dish containing isolation buffer, where the follicular membranes and vitelline were removed manually, thereby yielding denuded oocytes (Sakimura, et al. FEBS Lett. 1990, 272, 73). Denuded stage V-VI oocytes were then returned to fresh MBS medium and allowed to equ ilibrate for a minimum of 2 h at 18° C. prior to cRNA injection. Denuded oocytes unused after 24 h were discarded. An aliquot of hAQP4b cRNA solution (20 μL) was pelleted by centrifugation (15,000 rpm, 14 min, 4° C.), the pellet was washed sequentially with 70% aqueous ethanol, then 100% ethanol (centrifugation between washes at 15,000 rpm, 3 min, 4° C.), air dried, and finally reconstituted in distilled water (10 μL). An aliquot (30 nL) of either the resulting 0.1 μg/μL cRNA solution (3 ng hAQP4b cRNA/oocyte) or distilled water (sham) was injected into each oocyte using a Drummond oocyte injection system. The injected oocytes were then incubated for 48 h at 18° C. in MBS. The medium was changed and non-viable oocytes removed 24 and 48 h post injection.
An oocyte assay procedure was developed as follows: At a minimum of 3 h prior to the assay, oocytes were transferred to a 96 well microplate (Falcon 353077) along with 45 μL of MBS. An aliquot of a 200 μM inhibitor solution (5 μL, 1% aq. DMSO), or blank (5 μL, 1% aq. DMSO) was introduced to the oocyte containing well 2 h before the assay. The final concentration of the incubation medium was 20 μM in inhibitor with 0.1% DMSO. A secondary plate was likewise prepared by diluting an aliquot of the 200 μM inhibitor solution (15 μL, 1% aq. DMSO) or blank (15 μL, 1% aq. DMSO) with distilled water (135 μL). The assay was performed by transferring an aliquot of the secondary plate medium (100 μL) to the corresponding well on the incubation plate. […] The initial image (nominally t=3 s) and subsequent images (60 s intervals) were recorded for up to 4 minutes post dilution.
Images were transferred to a PC and the area of each oocyte was evaluated using NIH Image-J. The cross-sectional area values for each oocyte at time=t were converted to volumes assuming a spherical relationship. The relative volume of each oocyte compared to its initial volume was then determined. Relative oocyte volumes were then averaged for n oocytes along with the standard error at each point.

AQP1 = molecular target: T2, AQP1 (Homo sapiens, UniProt P29972); settings: literature report; cited from earlier work
T2 sequence (P29972 1-269): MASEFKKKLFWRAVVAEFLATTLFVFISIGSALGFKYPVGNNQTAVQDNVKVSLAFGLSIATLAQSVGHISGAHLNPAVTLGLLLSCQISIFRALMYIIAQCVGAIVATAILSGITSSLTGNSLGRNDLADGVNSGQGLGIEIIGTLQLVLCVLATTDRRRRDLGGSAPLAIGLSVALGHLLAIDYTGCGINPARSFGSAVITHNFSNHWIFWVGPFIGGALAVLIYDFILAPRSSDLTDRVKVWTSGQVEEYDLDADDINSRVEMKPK

[2] = molecular target: T1, human aquaporin-4 M23 isoform (hAQP4b); test: Inhibition of AQP4 mediated hypoosmotic swelling of Xenopus laevis oocytes expressing hAQP4b; format: cell-based; set-up: IAmax: unit not given here; settings: for IAmax: value in parentheses after IC50, 0.01≦[X]≦100 μM
AQP4 = AQP4 (Homo sapiens, UniProt P55087); settings: literature report; cited from earlier work
Chain of AQP4 (P55087 whole entry): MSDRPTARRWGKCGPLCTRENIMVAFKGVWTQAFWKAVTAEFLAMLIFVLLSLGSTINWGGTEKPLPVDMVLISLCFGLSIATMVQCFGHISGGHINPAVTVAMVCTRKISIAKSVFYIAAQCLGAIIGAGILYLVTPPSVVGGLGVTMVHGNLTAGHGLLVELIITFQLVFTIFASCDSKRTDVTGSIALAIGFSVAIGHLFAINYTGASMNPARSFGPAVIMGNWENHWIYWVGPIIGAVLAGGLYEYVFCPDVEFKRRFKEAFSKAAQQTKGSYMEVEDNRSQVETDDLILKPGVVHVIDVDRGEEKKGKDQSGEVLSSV

[3] = Table 3, from inhibitory data at 0.01≦[X]≦100 μM, read-out: IC50
[4] = figure legends FIGS. 8-12, non-linear least squares fit of dose dependent inhibition, read-out: IC50

Row | SMILES | inhibition at 20 µM [1] [%] | IAmax ([2]; Table 3) | further results
1 | COC(=O)Nc1nc2ccc(C(=O)c3cccs3)cc2[nH]1 [Nocodazole] |  |  | inhibition of AQP4 mediated hypoosmotic expansion (HEK293 cells): inhibiting the AQP4 mediated hypoosmotic expansion of HEK293 cells
2 | NC(=O)N1c2ccccc2[C@H]2O[C@H]2c2ccccc21 [Compound 6, (1aR, 10bS)-1aH-dibenzo[b,f] oxireno[2,3-d]azepine-6(10bH)-carboxamide] | 40 ± 7 |  | inhibition of AQP4 mediated water swelling / water transport ([1]; FIGS. 1-6, 20 μM inhibitor, hypoosmotic conditions, versus sham and blank oocytes, n=5 minimum): did not show a significantly inhibited water transport
3 | CC(=O)Nc1nnc(S(N)(=O)=O)s1 [acetazolamide] |  |  | inhibition of AQP1 (AQP1): inhibited in a dose dependent manner
4 | O=C(Nc1nccs1)c1cccnc1 [Compound 11, N-(thiazol-2-yl)nicotinamide] | 21 ± 7 | 23 | IC50 [2, 3]: 3.4 µM
5 | O=S(=O)(Cc1ccccc1)Nc1nncs1 [Compound 12, 1-phenyl-N-(1,3,4-thiadiazol-2-yl) methanesulfonamide] |  |  | % Inh (percent inhibition and cumulated error) [1]: 45 ± 8%
6 | O=C(Nc1nncs1)c1cccnc1 [Table 3 entry 10, N-(1,3,4-thiadiazol-2-yl) nicotinamide] |  |  | IC50 [2, 4]: 3.1 µM
7 | CC(=O)Nc1nnc(S(N)(=O)=O)s1 [Compound 1, N-(5-sulfamoyl-1,3,4-thiadiazol-2-yl)acetamide] | 78 ± 3 | 86 | dose response dependent inhibition of AQP4 mediated water transport ([2]; FIG. 7, 0.01, 0.1, 1.0 and 10 μM solutions, n=5): significant inhibition; IC50 ([2]; Table 3, from inhibitory data at 0.01≦[X]≦100 μM): 0.86 µM
8 | O=C1NC(=O)C(c2ccccc2)(c2ccccc2)N1 [Compound 4, 5,5-diphenylimidazolidine-2,4-dione] | 58 ± 4 | 60 | IC50 [2, 3]: 9.8 µM
9 | CN(C)CCc1c[nH]c2ccc(Cn3cncn3)cc12 [Table 3 entry 15, 2-(5-((1H-1,2,4-triazol-1-yl)methyl)-1H-indol-3-yl)-N,N-dimethylethanamine] |  |  | IC50 [2, 4]: 2.9 µM
10 | NC(=O)c1nc[nH]c1C(N)=O [Compound 14, 1H-imidazole-4,5-dicarboxamide] | 23 ± 8 |  | 
11 | CN(C)CCc1c[nH]c2ccc(Cn3cncn3)cc12 [Compound 15, 2-(5-((1H-1,2,4-triazol-1-yl)methyl)-1H-indol-3-yl)-N,N-dimethylethanamine] | 51 ± 5 | 54 | IC50 [2, 3]: 2.9 µM
12 | NC(=O)N1c2ccccc2CC(=O)c2ccccc21 [Compound 5, 10-oxo-10,11-dihydro-5H-dibenzo [b,f]azepine-5-carboxamide] | 33 ± 4 |  | 
13 | NS(=O)(=O)c1ccc(Cl)s1 [Compound 13, 2-chlorothiophene-5-sulfonamide] | 18 ± 9 |  | 
14 | O=C1NC(=O)C(c2ccccc2)(c2ccccc2)N1 [Table 3 entry 4, 5,5-diphenylimidazolidine-2,4-dione] |  |  | IC50 [2, 4]: 9.8 µM
15 | O=C(Nc1nncs1)c1cccnc1 [Compound 10, N-(1,3,4-thiadiazol-2-yl) nicotinamide] | 67 ± 6 | 73 | IC50 [2, 3]: 3.1 µM
16 | NS(=O)(=O)Cc1noc2ccccc12 [Compound 9, benzo[d]isoxazol-3-ylmethane sulfonamide] | 19 ± 5 |  | 
17 | CC1(C)O[C@@H]2[C@@H](CO[C@@]3(COS(N)(=O)=O)OC(C)(C)O[C@@H]23)O1 [Compound 8, ((3aS,5aR,8aR,8bS)-2,2,7,7-tetra-methyltetrahydro-3aH-bis[1,3]dioxolo[4,5-b:4′,5′-d]pyran-3a-yl) methyl sulfamate] |  | 75 | % Inh (percent inhibition and cumulated error) [1]: 67 ± 6%; IC50 [2, 3]: 10.1 µM
18 | CC1(C)O[C@@H]2[C@@H](CO[C@@]3(COS(N)(=O)=O)OC(C)(C)O[C@@H]23)O1 [Table 3 entry 8, ((3aS,5aR,8aR,8bS)-2,2,7,7-tetra-methyltetrahydro-3aH-bis[1,3]dioxolo[4,5-b:4′,5′-d]pyran-3a-yl) methyl sulfamate] |  |  | IC50 [2, 4]: 10.1 µM
19 | CC[N+](CC)(CC)CC.[Cl-] [tetraethyl ammonium chloride] |  |  | inhibition of AQP4 (AQP4): shown to inhibit AQP4
20 | Nc1nnc(-c2cccc(Cl)c2Cl)c(N)n1 [Compound 7, 6-(2,3-dichlorophenyl)-1,2,4-triazine-3,5-diamine] | 54 ± 9 | 64 | IC50 [2, 3]: 8.1 µM
21 | CC(=O)Nc1nnc(S(N)(=O)=O)s1 [Table 3 entry 1, N-(5-sulfamoyl-1,3,4-thiadiazol-2-yl)acetamide] |  |  | IC50 [1]: 0.86 µM
22 | CC(=O)Nc1ccc(S(N)(=O)=O)cc1 [Compound 3, N-(4-sulfamoylphenyl)acetamide] | 23 ± 5 |  | 
